Test results as given in the kinase profiling compilation of Christmann-Franck et al. (2016).

Legend:
Assay in all cases: KINOMEscan competition binding
Details in all cases: compound 10.0 µM
ACVR2A (human) = ACVR2A (human) (UniProt P27037)
AURKC (human) = AURKC (human) (UniProt Q9UQB9)
CAMKK1 (human) = CAMKK1 (human) (UniProt Q8N5S9)
CAMKK2 (human) = CAMKK2 (human) (UniProt Q96RR4)
CDK7 (human) = CDK7 (human) (UniProt P50613)
CIT (human) = CIT (human) (UniProt O14578)
CLK2 (human) = CLK2 (human) (UniProt P49760)
CLK3 (human) = CLK3 (human) (UniProt P49761)
CLK3 (human), sequence (P49761 whole entry, looked up): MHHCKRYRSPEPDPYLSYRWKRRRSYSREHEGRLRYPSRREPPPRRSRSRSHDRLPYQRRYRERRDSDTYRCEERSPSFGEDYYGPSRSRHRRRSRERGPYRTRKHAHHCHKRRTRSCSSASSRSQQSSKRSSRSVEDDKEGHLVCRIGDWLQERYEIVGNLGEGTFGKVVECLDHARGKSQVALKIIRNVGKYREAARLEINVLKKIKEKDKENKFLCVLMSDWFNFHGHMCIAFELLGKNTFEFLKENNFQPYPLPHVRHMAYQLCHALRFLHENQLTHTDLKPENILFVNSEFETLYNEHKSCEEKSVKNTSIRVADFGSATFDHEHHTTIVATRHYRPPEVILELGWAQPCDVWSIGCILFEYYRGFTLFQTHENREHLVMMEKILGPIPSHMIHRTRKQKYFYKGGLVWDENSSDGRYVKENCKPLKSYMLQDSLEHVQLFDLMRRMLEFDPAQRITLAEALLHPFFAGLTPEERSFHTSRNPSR

CSNK1E (human) = CSNK1E (human) (UniProt P49674)
CSNK1E (human), sequence (P49674 whole entry, looked up): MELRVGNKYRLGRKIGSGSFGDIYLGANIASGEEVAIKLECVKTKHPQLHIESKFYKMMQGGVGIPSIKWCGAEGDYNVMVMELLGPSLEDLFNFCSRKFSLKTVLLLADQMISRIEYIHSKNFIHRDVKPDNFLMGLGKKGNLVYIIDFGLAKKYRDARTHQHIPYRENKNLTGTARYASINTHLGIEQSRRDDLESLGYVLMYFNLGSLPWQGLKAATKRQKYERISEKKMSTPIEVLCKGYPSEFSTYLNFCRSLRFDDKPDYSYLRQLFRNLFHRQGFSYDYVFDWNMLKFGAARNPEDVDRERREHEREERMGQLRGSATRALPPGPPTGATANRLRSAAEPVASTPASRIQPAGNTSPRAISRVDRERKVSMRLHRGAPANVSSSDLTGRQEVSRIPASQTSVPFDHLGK

CSNK2A1 (human) = CSNK2A1 (human) (UniProt P68400)
DAPK1 (human) = DAPK1 (human) (UniProt P53355)
DAPK1 (human), sequence (P53355 whole entry, looked up): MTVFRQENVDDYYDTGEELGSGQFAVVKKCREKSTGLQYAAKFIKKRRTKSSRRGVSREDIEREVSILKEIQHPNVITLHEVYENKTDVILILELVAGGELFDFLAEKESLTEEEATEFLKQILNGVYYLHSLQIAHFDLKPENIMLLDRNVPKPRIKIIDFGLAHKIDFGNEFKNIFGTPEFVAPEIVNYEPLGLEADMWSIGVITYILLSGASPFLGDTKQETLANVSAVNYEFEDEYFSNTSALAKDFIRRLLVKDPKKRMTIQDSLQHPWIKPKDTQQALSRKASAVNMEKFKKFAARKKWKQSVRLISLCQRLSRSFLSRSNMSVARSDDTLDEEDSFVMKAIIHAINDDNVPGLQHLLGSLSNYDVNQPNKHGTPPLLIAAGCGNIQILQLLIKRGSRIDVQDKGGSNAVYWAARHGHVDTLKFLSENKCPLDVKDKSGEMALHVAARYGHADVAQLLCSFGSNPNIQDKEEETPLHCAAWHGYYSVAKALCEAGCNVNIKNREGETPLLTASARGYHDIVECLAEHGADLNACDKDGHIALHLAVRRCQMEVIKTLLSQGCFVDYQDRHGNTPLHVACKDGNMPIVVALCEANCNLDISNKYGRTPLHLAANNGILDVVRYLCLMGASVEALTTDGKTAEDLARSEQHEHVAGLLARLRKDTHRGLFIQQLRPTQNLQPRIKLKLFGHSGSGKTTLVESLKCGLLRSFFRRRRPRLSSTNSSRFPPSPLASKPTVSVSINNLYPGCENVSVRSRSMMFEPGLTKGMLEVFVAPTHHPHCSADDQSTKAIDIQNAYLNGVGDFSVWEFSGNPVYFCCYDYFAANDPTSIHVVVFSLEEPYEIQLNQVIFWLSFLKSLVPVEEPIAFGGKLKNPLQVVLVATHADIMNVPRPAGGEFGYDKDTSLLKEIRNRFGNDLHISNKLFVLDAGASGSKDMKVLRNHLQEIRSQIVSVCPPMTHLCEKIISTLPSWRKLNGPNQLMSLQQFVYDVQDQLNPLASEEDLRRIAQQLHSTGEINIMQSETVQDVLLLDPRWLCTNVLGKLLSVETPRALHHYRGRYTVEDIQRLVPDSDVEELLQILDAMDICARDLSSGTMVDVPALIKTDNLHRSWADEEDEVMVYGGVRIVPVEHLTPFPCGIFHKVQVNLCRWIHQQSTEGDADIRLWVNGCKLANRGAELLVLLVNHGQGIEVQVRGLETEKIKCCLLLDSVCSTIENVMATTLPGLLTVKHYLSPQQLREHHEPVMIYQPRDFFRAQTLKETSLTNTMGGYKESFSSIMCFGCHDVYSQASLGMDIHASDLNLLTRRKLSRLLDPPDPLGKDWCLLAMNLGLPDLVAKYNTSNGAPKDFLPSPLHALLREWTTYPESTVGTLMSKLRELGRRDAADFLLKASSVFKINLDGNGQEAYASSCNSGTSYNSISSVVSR

DCLK3 (human) = DCLK3 (human) (UniProt Q9C098)
[1] = tested on: EGFR (human), P00533 [G719S]
FLT3 (human) = FLT3 (human) (UniProt P36888)
[2] = tested on: FLT3 (human), P36888 [K663Q]
GAK (human) = GAK (human) (UniProt O14976)
HIPK1 (human) = HIPK1 (human) (UniProt Q86Z02)
[3] = target: JAK1 JH2 pseudokinase (human) (UniProt P23458)
[4] = target: JAK3 JH1 catalytic (human) (UniProt P52333)
KIT (human) = KIT (human) (UniProt P10721)
[5] = tested on: KIT (human), P10721 [D816V]
[6] = tested on: KIT (human), P10721 [V559D/T670I]
MAP2K3 (human) = MAP2K3 (human) (UniProt P46734)
MAP3K7 (human) = MAP3K7 (human) (UniProt O43318)
MAP3K7 (human), sequence (O43318 whole entry, looked up): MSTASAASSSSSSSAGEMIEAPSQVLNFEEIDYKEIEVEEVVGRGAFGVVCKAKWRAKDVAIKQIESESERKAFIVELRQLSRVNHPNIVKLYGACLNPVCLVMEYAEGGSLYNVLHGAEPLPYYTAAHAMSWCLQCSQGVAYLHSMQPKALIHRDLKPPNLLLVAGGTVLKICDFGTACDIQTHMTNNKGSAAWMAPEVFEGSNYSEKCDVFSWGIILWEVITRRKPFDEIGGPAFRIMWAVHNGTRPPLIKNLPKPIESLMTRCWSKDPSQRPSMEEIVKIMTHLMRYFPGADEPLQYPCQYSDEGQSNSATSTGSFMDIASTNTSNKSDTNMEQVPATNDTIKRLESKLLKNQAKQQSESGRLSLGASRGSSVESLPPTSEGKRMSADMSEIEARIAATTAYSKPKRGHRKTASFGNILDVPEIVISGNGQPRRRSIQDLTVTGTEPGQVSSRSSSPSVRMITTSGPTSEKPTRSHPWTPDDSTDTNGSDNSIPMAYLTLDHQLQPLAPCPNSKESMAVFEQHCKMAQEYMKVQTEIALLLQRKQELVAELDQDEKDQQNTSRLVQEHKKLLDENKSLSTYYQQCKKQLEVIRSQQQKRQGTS

MAPK15 (human) = MAPK15 (human) (UniProt Q8TD08)
MINK1 (human) = MINK1 (human) (UniProt Q8N4C8)
MKNK1 (human) = MKNK1 (human) (UniProt Q9BUB5)
MKNK2 (human) = MKNK2 (human) (UniProt Q9HBH9)
MYLK (human) = MYLK (human) (UniProt Q15746)
NEK2 (human) = NEK2 (human) (UniProt P51955)
PIK3CG (human) = PIK3CG (human) (UniProt P48736)
PIM1 (human) = PIM1 (human) (UniProt P11309)
PIM1 (human), sequence (P11309 whole entry, looked up): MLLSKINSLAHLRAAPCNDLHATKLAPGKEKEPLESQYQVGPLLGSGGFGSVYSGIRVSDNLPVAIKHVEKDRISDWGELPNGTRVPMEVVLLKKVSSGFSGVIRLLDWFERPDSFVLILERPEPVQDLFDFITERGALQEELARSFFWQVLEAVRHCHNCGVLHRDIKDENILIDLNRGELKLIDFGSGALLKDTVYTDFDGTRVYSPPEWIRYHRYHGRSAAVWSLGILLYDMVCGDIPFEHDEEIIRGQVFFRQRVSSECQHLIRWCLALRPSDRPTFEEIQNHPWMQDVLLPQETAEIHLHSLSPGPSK

PRKD1 (human) = PRKD1 (human) (UniProt Q15139)
RIOK1 (human) = RIOK1 (human) (UniProt Q9BRS2)
RIOK2 (human) = RIOK2 (human) (UniProt Q9BVS4)
RIPK4 (human) = RIPK4 (human) (UniProt P57078)
RPS6KA1 KD2 (human) = RPS6KA1 KD2 (human) (UniProt Q15418)
RPS6KA1 KD2 (human), sequence (Q15418 whole entry, looked up): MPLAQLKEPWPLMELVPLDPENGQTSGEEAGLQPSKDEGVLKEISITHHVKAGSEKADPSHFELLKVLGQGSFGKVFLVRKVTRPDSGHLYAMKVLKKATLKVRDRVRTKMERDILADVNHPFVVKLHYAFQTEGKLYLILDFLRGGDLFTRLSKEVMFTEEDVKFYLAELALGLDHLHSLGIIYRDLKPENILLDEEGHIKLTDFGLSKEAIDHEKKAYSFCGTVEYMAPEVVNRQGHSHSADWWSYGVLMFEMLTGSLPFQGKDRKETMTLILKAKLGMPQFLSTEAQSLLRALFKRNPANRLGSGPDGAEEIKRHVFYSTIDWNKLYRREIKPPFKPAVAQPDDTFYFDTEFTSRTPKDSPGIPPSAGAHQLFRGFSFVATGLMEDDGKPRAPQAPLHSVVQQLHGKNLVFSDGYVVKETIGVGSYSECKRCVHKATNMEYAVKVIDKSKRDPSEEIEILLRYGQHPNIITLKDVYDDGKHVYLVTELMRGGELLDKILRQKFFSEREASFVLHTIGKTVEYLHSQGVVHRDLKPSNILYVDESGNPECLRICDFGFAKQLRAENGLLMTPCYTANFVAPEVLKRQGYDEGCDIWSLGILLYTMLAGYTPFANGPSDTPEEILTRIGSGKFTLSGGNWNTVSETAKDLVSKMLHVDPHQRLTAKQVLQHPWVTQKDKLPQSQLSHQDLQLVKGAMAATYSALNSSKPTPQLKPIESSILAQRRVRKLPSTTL

RPS6KA4 KD2 (human) = RPS6KA4 KD2 (human) (UniProt O75676)
RPS6KA5 KD2 (human) = RPS6KA5 KD2 (human) (UniProt O75582)
STK17B (human) = STK17B (human) (UniProt O94768)
STK17B (human), sequence (O94768 whole entry, looked up): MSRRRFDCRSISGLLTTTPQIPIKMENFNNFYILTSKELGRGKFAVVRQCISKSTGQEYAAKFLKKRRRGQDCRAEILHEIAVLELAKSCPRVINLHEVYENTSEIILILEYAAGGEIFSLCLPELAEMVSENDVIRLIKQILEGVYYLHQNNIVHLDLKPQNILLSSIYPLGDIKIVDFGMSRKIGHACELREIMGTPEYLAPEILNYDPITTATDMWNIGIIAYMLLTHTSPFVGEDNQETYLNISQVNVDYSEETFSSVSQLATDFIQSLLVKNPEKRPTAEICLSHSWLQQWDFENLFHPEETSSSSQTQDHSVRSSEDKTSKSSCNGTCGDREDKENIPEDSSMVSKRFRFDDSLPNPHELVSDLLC

[7] = target: TYK2 JH2 pseudokinase (human) (UniProt P29597)
ULK2 (human) = ULK2 (human) (UniProt Q8IYT8)

AURKC (human), sequence (Q9UQB9 whole entry, looked up): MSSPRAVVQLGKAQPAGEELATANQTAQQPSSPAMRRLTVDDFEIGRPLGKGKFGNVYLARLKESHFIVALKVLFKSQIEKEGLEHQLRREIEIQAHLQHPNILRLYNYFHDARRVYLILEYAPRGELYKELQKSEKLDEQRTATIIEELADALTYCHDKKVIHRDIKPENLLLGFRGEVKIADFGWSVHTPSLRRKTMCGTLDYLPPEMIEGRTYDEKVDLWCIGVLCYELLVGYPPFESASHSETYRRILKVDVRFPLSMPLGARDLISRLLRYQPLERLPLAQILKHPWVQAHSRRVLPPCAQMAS
CDK7 (human), sequence (P50613 whole entry, looked up): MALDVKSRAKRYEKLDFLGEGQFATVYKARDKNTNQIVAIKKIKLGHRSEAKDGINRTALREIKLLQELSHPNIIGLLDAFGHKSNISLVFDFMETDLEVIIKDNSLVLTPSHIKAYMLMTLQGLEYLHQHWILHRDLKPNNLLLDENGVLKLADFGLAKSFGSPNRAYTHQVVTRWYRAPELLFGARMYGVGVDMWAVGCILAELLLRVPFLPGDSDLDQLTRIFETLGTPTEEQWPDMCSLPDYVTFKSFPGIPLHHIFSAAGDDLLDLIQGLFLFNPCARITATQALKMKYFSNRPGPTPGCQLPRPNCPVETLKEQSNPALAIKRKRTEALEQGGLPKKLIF

Q: What does the source list for `COc1cc(N2CCC(O)CC2)ccc1Nc1ncc2c(n1)N1CCc3cccc(c31)C(=O)N2C`?
A: kinase still bound, per cent of control (ACVR2A (human)): 100%; kinase still bound, per cent of control (AURKC (human)): 89%; kinase still bound, per cent of control (CAMKK1 (human)): 77%; kinase still bound, per cent of control (CAMKK2 (human)): 60%; kinase still bound, per cent of control (CDK7 (human)): 83%; kinase still bound, per cent of control (CIT (human)): 10%; kinase still bound, per cent of control (CLK2 (human)): 55%; kinase still bound, per cent of control (CLK3 (human)): 100%; kinase still bound, per cent of control (CSNK1E (human)): 92%; kinase still bound, per cent of control (CSNK2A1 (human)): 100%; kinase still bound, per cent of control (DAPK1 (human)): 44%; kinase still bound, per cent of control (DCLK3 (human)): 84%; kinase still bound, per cent of control [1]: 76%; kinase still bound, per cent of control (FLT3 (human)): 95%; kinase still bound, per cent of control [2]: 96%; kinase still bound, per cent of control (GAK (human)): 12%; kinase still bound, per cent of control (HIPK1 (human)): 73%; kinase still bound, per cent of control [3]: 70%; kinase still bound, per cent of control [4]: 86%; kinase still bound, per cent of control (KIT (human)): 91%; kinase still bound, per cent of control [5]: 76%; kinase still bound, per cent of control [6]: 79%; kinase still bound, per cent of control (MAP2K3 (human)): 92%; kinase still bound, per cent of control (MAP3K7 (human)): 98%; kinase still bound, per cent of control (MAPK15 (human)): 100%; kinase still bound, per cent of control (MINK1 (human)): 60%; kinase still bound, per cent of control (MKNK1 (human)): 48%; kinase still bound, per cent of control (MKNK2 (human)): 32%; kinase still bound, per cent of control (MYLK (human)): 16%; kinase still bound, per cent of control (NEK2 (human)): 62%; kinase still bound, per cent of control (PIK3CG (human)): 28%; kinase still bound, per cent of control (PIM1 (human)): 91%; kinase still bound, per cent of control (PRKD1 (human)): 12%; kinase still bound, per cent of control (RIOK1 (human)): 100%; kinase still bound, per cent of control (RIOK2 (human)): 100%; kinase still bound, per cent of control (RIPK4 (human)): 79%; kinase still bound, per cent of control (RPS6KA1 KD2 (human)): 8%; kinase still bound, per cent of control (RPS6KA4 KD2 (human)): 17%; kinase still bound, per cent of control (RPS6KA5 KD2 (human)): 62%; kinase still bound, per cent of control (STK17B (human)): 100%; kinase still bound, per cent of control [7]: 70%; kinase still bound, per cent of control (ULK2 (human)): 80%

Q: Which results are given for `COc1cc(N2CCN(C)CC2)ccc1Nc1ncc2c(n1)Nc1ccccc1NC2=O`?
A: kinase still bound, per cent of control (ACVR2A (human)): 34%; kinase still bound, per cent of control (AURKC (human)): 55%; kinase still bound, per cent of control (CAMKK1 (human)): 40%; kinase still bound, per cent of control (CAMKK2 (human)): 100%; kinase still bound, per cent of control (CDK7 (human)): 100%; kinase still bound, per cent of control (CIT (human)): 47%; kinase still bound, per cent of control (CLK2 (human)): 95%; kinase still bound, per cent of control (CLK3 (human)): 100%; kinase still bound, per cent of control (CSNK1E (human)): 59%; kinase still bound, per cent of control (CSNK2A1 (human)): 76%; kinase still bound, per cent of control (DAPK1 (human)): 64%; kinase still bound, per cent of control (DCLK3 (human)): 98%; kinase still bound, per cent of control [1]: 48%; kinase still bound, per cent of control (FLT3 (human)): 69%; kinase still bound, per cent of control [2]: 75%; kinase still bound, per cent of control (GAK (human)): 5.8%; kinase still bound, per cent of control (HIPK1 (human)): 45%; kinase still bound, per cent of control [3]: 32%; kinase still bound, per cent of control [4]: 92%; kinase still bound, per cent of control (KIT (human)): 48%; kinase still bound, per cent of control [5]: 46%; kinase still bound, per cent of control [6]: 59%; kinase still bound, per cent of control (MAP2K3 (human)): 88%; kinase still bound, per cent of control (MAP3K7 (human)): 96%; kinase still bound, per cent of control (MAPK15 (human)): 69%; kinase still bound, per cent of control (MINK1 (human)): 71%; kinase still bound, per cent of control (MKNK1 (human)): 100%; kinase still bound, per cent of control (MKNK2 (human)): 69%; kinase still bound, per cent of control (MYLK (human)): 100%; kinase still bound, per cent of control (NEK2 (human)): 84%; kinase still bound, per cent of control (PIK3CG (human)): 100%; kinase still bound, per cent of control (PIM1 (human)): 46%; kinase still bound, per cent of control (PRKD1 (human)): 64%; kinase still bound, per cent of control (RIOK1 (human)): 67%; kinase still bound, per cent of control (RIOK2 (human)): 43%; kinase still bound, per cent of control (RIPK4 (human)): 100%; kinase still bound, per cent of control (RPS6KA1 KD2 (human)): 43%; kinase still bound, per cent of control (RPS6KA4 KD2 (human)): 31%; kinase still bound, per cent of control (RPS6KA5 KD2 (human)): 92%; kinase still bound, per cent of control (STK17B (human)): 93%; kinase still bound, per cent of control [7]: 1%; kinase still bound, per cent of control (ULK2 (human)): 75%
